Source: patent US11235011B2, “Use of alphavirus in preparation of antitumor drugs” (GUANGZHOU VIROTECH PHARMACEUTICAL CO., LTD, priority 2014, dated 2022)
d = 2'-deoxy (DNA); r = 2'-OH (RNA)

Key:
[1] = tested on: human ex vivo living colorectal cancer tissue; assay: Human ex vivo living tumor tissue culture, TECIA/MTT inhibition rate; assay type: cell-based; details: M1 virus 10^7 PFU, 5-Fu 10 mg/L, 96 hours
Experimental: (§1) The ex vivo living tissue was obtained by surgical excision in Tumor Prevention Center of Sun Yat-sen University, stored at 4 □, and then sent to the laboratory within four hours for drug sensitivity test. All the cases were confirmed by a histopathology examination. Under sterile condition, the tumor tissue was taken out, and cut into tissue pieces with a diameter of 0.5-1 mm, placed onto a 24-well culture plate (4-6 pieces per well), and 1 ml DMEM medium was added into each well. After one hour of culture, a projection illuminated image of the tumor tissue piece was taken by an image analyzer specialized for drug sensitivity test.
(§2) The tumor tissue was cultured in a CO2 cell incubator for 12 hours. […] After 96 hours of the infection treatment, MTT (5 mg/ml) was added at 50 μl/well, and cultured for 3 hours. A diffusion light illuminated image of the tumor tissue piece was then taken by an image analyzer specialized for drug sensitivity test, to determine the blue dyed area by formazan in the tumor piece in each well and the coloring degree (blue area, BA). Then the tissue survival rate (survival fraction, SF) was calculated according the following formula: […]

[2] = tested on: human ex vivo living liver cancer tissues; assay: as above; assay type: cell-based; details: M1 virus 10^7 PFU, 5-Fu 10 mg/L, 96 hours
Experimental: as §1, §2

[3] = tested on: ZAP; assay: ZAP protein expression after ZAP RNA interference fragment (Western blot); assay type: cell-based, human
Experimental: The cells in the exponential growth phase were selected, and added into a DMEM complete medium (10% fetal bovine serum, 1% double antibody) to prepare a cell suspension, and the cells were inoculated into a 6-well plate at a density of 1×10^5/well. After 24 hours, Si RNA fragment wrapped with RNAiMAX was added. […] After 48 hours of the infection, the specimens were treated.

Compound	number of cases with inhibition rate (% control) >10% [1]	number of cases with inhibition rate (% control) ≤10% [1]	ratio of cases with inhibition rate (% control) >10% [1] [%]	ratio of cases with inhibition rate (% control) ≤10% [1] [%]	number of cases with inhibition rate (% control) >10% [2]	number of cases with inhibition rate (% control) ≤10% [2]	ratio of cases with inhibition rate (% control) >10% [2] [%]	ratio of cases with inhibition rate (% control) ≤10% [2] [%]	ZAP protein expression quantity ([3]; HCT116)	ZAP protein expression quantity ([3]; L-02)	ZAP protein expression quantity ([3]; PLC)
O=c1[nH]cc(F)c(=O)[nH]1 [5-Fu, 5-fluorouracil]	8	5	61.5	38.5	14	12	53.8	46.2	–	–	–
ZAP RNA interference fragment: ZAP interference fragment (Si RNA), sense strand SEQ ID No. 8, antisense strand SEQ ID No. 9 (sense CCAAGAGUAGCACUUGUUATT; antisense UAACAAGUGCUACUCUUGGTT; sugars from the 5' end r19 d2, backbone not given here)	–	–	–	–	–	–	–	–	undetectable level	undetectable level	undetectable level
